Experimental data reported in patent US10668064B2, “Polycyclic-carbamoylpyridone compounds and their pharmaceutical use” (Gilead Sciences, Inc., priority 2013, dated 2020).

Experiments:
HIV-IIIb = experiment: Antiviral assay in MT4 cells; assay type: cell-based; details: Human immunodeficiency virus 1, 120 h; MT4 cells infected with HIV-IIIb, 5 days incubation, CellTiter-Glo; average over time; read-out: EC50 nM in MT-4
Procedure: (§1) For the antiviral assay utilizing MT4 cells, 0.4 μL of 189× test concentration of 3-fold serially diluted compound in DMSO was added to 40 μL of cell growth medium (RPMI 1640, 10% FBS, 1% penicillin/streptomycin, 1% L-Glutamine, 1% HEPES) in each well of 384-well assay plates (10 concentrations) in quadruplicate. 1 mL aliquots of 2×10^6 MT4 cells are pre-infected for 1 and 3 hours respectively at 37° C. with 25 μL (MT4) or of either cell growth medium (mock-infected) or a fresh 1:250 dilution of an HIV-IIIb concentrated ABI stock (0.004 m.o.i. for MT4 cells). Infected and uninfected cells are diluted in cell growth medium and 35 μL of 2000 (for MT4) cells is added to each well of the assay plates. Assay plates were then incubated in a 37° C. incubator. After 5 days of incubation, 25 μL of 2× concentrated CellTiter-Glo™ Reagent (catalog # G7573, Promega Biosciences, Inc., Madison, Wis.) was added to each well of the assay plate. Cell lysis was carried out by incubating at room temperature for 2-3 minutes, and then chemiluminescence was read using the Envision reader (PerkinElmer).

in vitro = assay type: cell-based; details: human
Procedure: as §1

Compound | EC50 (HIV-IIIb) [nM] | CC50 at 5 days (in vitro) [nM]
O=C(N[C@@H](c1ccc(F)cc1F)C(F)(F)F)c1cn2c(c(O)c1=O)C(=O)N1[C@@H]3C[C@H](O[C@@H]1C2)[C@H]1C[C@H]13 [Compound 1, (1aS,2S,3aR,12R,12aR)-N-((S)-1-(2,4-difluorophenyl)-2,2,2-trifluoroethyl)-9-hydroxy-8,10-dioxo-1a,2,3a,4,8,10,12,12a-octahydro-1H-2,12-methanocyclopropa[e]pyrido[1′,2′:4,5]pyrazino[2,1-b][1,3]oxazepine-7-carboxamide] | 9.6 | 14100
O=C(N[C@@H](c1ccc(F)cc1F)C(F)(F)F)c1cn2c(c(O)c1=O)C(=O)N1[C@H](C2)O[C@@H]2C[C@H]1[C@H]1C[C@H]12 [Compound 2, (1aR,2R,3aS,12S,12aS)-N-((S)-1-(2,4-difluorophenyl)-2,2,2-trifluoroethyl)-9-hydroxy-8,10-dioxo-1a,2,3a,4,8,10,12,12a-octahydro-1H-2,12-methanocyclopropa[e]pyrido[1′,2′:4,5]pyrazino[2,1-b][1,3]oxazepine-7-carboxamide] | 10.7 | 7800
C[C@@H](NC(=O)c1cn2c(c(O)c1=O)C(=O)N1[C@@H]3C[C@H](O[C@@H]1C2)[C@H]1C[C@H]13)c1ccc(F)cc1F [Compound 3, (1aS,2S,3aR,12R,12aR)-N-((R)-1-(2,4-difluorophenyl)ethyl)-9-hydroxy-8,10-dioxo-1a,2,3a,4,8,10,12,12a-octahydro-1H-2,12-methanocyclopropa[e]pyrido[1′,2′:4,5]pyrazino[2,1-b][1,3]oxazepine-7-carboxamide] | 9.9 | 4100
C[C@@H](NC(=O)c1cn2c(c(O)c1=O)C(=O)N1C3CC(O[C@H]1C2)[C@@H]1C[C@H]31)c1ccc(F)cc1F (some centres unmarked) [Compound 4] | 8.4 | 12800
O=C(NCc1ccc(F)cc1F)c1cn2c(c(O)c1=O)C(=O)N1C(C2)O[C@@H]2C[C@H]1[C@@H]1[C@H]2C1(F)F (stereo partly drawn) [Compound 5, (1aR,2R,12S,12a5)-N-(2,4-difluorobenzyl)-1,1-difluoro-9-hydroxy-8,10-dioxo-1a,2,3a,4,8,10,12,12a-octahydro-1H-2,12-methanocyclopropa[e]pyrido[1′,2′:4,5]pyrazino[2,1-b][1,3]oxazepine-7-carboxamide] | 1.6 | 50500
O=C(NCc1ccc(F)cc1F)c1cn2c(c(O)c1=O)C(=O)N1C(C2)O[C@@H]2C[C@H]1[C@H]1C[C@H]12 (stereo partly drawn) [Compound 6, (1aR,2R,3aS,12S,12a5)-N-(2,4-difluorobenzyl)-9-hydroxy-8,10-dioxo-1a,2,3a,4,8,10,12,12a-octahydro-1H-2,12-methanocyclopropa[e]pyrido[1′,2′:4,5]pyrazino[2,1-b][1,3]oxazepine-7-carboxamide] | 1.5 | 14100
O=C(NCc1ccc(F)cc1F)c1cn2c(c(O)c1=O)C(=O)N1[C@@H]3C[C@H](O[C@@H]1C2)[C@H]1C[C@H]13 [Compound 7, (1aS,2S,3aR,12R,12aR)-N-(2,4-difluorobenzyl)-9-hydroxy-8,10-dioxo-1a,2,3a,4,8,10,12,12a-octahydro-1H-2,12-methanocyclopropa[e]pyrido[1′,2′:4,5]pyrazino[2,1-b][1,3]oxazepine-7-carboxamide] | 2.7 | 4830
O=C(NCc1ccc(F)cc1F)c1cn2c(c(O)c1=O)C(=O)N1[C@H](C2)[C@@H]2C[C@H]1[C@H]1C[C@@H]21 [Compound 8, (1aS,2S,10aS,11R,11aR)-N-(2,4-difluorobenzyl)-5-hydroxy-4,6-dioxo-1a,2,4,6,10,10a,11,11a-octahydro-1H-2,11-methanocyclopropa[4,5]pyrido[1,2-a]pyrido[1,2-d]pyrazine-7-carboxamide] | 1.4 | 8840
O=C(NCc1c(F)cc(F)cc1F)c1cn2c(c(O)c1=O)C(=O)N1[C@H](C2)[C@@H]2C[C@H]1[C@H]1C[C@@H]21 [Compound 9, (1aS,2S,10aS,11R,11aR)-5-hydroxy-4,6-dioxo-N-(2,4,6-trifluorobenzyl)-1a,2,4,6,10,10a,11,11a-octahydro-1H-2,11-methanocyclopropa[4,5]pyrido[1,2-a]pyrido[1,2-d]pyrazine-7-carboxamide] | 1.4 | 10700
O=C(NCc1c(F)cc(F)cc1F)c1cn2c(c(O)c1=O)C(=O)N1[C@@H]3C[C@H](O[C@@H]1C2)[C@H]1C[C@H]13 [Compound 10, (1aS,2S,3aR,12R,12aR)-9-hydroxy-8,10-dioxo-N-(2,4,6-trifluorobenzyl)-1a,2,3a,4,8,10,12,12a-octahydro-1H-2,12-methanocyclopropa[e]pyrido[1′,2′:4,5]pyrazino[2,1-b][1,3]oxazepine-7-carboxamide] | 1.7 | 7590
O=C(NCc1c(F)cc(F)cc1F)c1cn2c(c(O)c1=O)C(=O)N1C(C2)O[C@@H]2C[C@H]1[C@H]1C[C@H]12 (stereo partly drawn) [Compound 11, (1aR,2R,10aR,11S,11a5)-5-hydroxy-4,6-dioxo-N-(2,4,6-trifluorobenzyl)-1a,2,4,6,10,10a,11,11a-octahydro-1H-2,11-methanocyclopropa[4,5]pyrido[1,2-a]pyrido[1,2-d]pyrazine-7-carboxamide] | 1.5 | 11000
O=C(NCc1c(F)cc(F)cc1F)c1cn2c(c(O)c1=O)C(=O)N1[C@@H]3C[C@@H]([C@H]4C[C@H]43)[C@@H]1C2 [Compound 12, (1aR,2R,10aR,11S,11aS)-5-hydroxy-4,6-dioxo-N-(2,4,6-trifluorobenzyl)-1a,2,4,6,10,10a,11,11a-octahydro-1H-2,11-methanocyclopropa[4,5]pyrido[1,2-a]pyrido[1,2-d]pyrazine-7-carboxamide] | 2.9 | 22800
O=C(NCc1cc(F)c(F)cc1F)c1cn2c(c(O)c1=O)C(=O)N1C3CC([C@@H]4C[C@H]34)[C@@H]1C2 (stereo partly drawn) [Compound 13, (1aR,2R,10aR,11S,11a5)-5-hydroxy-4,6-dioxo-N-(2,4,5-trifluorobenzyl)-1a,2,4,6,10,10a,11,11a-octahydro-1H-2,11-methanocyclopropa[4,5]pyrido[1,2-a]pyrido[1,2-d]pyrazine-7-carboxamide] | 2.3 | 7050
